Measured values published in patent US4497822A, “Insecticidal N-benzoyl-N'-phenyl-N'-(R-thio)ureas” (Shell Oil Company, priority 1982, dated 1985).
≈ marks a conversion by molar mass, not a printed value.

Legend:
[1] = tested on: Spodoptera littoralis larvae; assay: Insecticidal activity, sprayed diet (Test 1 (a)), toxicity vs parathion; assay type: in vivo, Egyptian cotton leafworm (Spodoptera littoralis); details: second instar larvae; mortality 7 days after spraying; 50% mortality basis; standard parathion = 100
Procedure: (§1) The insecticidal and ovicidal activities of the compounds of the invention were assessed employing the pests, Egyptian cotton leafworm (Spodoptera littoralis, S.l.), mosquito (Aedes aegypti, A.a.) and eggs of Spodoptera littoralis, S.l.ov.
(§2) The test methods used for each species are described below. In each case the tests were conducted under normal insectary conditions (28° C.[…]; fluctuating light and humidity).
(§3) In each instance, the toxicity of the compound of the invention was compared to that of a standard pesticide (parathion), its relative toxicity then being expressed in terms of the relationship between the amount of compound of the invention and the amount of the standard pesticide required to produce the same percentage (50%) of mortality in the test insect. By assigning the standard pesticide an arbitrary rating of 100, the toxicities of the compounds of the invention were expressed in terms of the toxicity indices, which compares the toxicity of the compounds of the invention with that of the standard pesticide.
(a) Spodoptera littoralis--A solution or suspension of the test compound was made up over a range of concentrations in 10% acetone/water containing 0.025% Triton X100 (as surfactant). These solutions were sprayed using a logarithmic spraying machine onto petri dishes containing a nutritious diet on which the Spodoptera littoralis larvae had been reared. When the spray deposit had dried each dish was infested with 10 second instar larvae. Mortality assessments were made 7 days after spraying.

Solubility in xylene = assay type: physicochemical; details: organic solvent or mixture, o-xylene, 20° C., dark, liquid chromatography
Procedure: To illustrate the improved solubility in a common formulation solvent, xylene, of the compounds according to the invention, solubility tests were carried out with certain of these compounds and closely related compounds known from the literature. The test method is described below.
The compound (200 mg) was equilibrated with solvent (0.5 ml of o-xylene at 20° C. in the dark for 48 hours). After equilibration, the supernatant liquors were removed, centrifuged and then filtered. An aliquot portion of this (0.1 ml) was made up to volume (1 to 100 ml) with acetonitrile and then analyzed against standards by means of liquid chromatography.

[2] = tested on: eggs of Spodoptera littoralis; assay: Ovicidal activity, sprayed eggs (Test 1 (c)), toxicity vs parathion; assay type: in vivo, Egyptian cotton leafworm (Spodoptera littoralis); details: eggs less than 24 hours old; approximately five days; 50% mortality basis; standard parathion = 100
Procedure: as §1, §2
as §3, with “pesticide. That is to say, a test compound having a Toxicity Index of 50 would be half as active, while one having a Toxicity Index of 200 would be twice as active as the standard pesticide.” for “pesticide.”
(c) Spodoptera littoralis (ovicide)--Solutions as described in (a) above were prepared. Eggs less than 24 hours old were obtained as follows. Adult Spodoptera littoralis were held in large plastic cylinders containing blotting paper on which the moths laid their batches of eggs. Egg batches containing approximately 60-70 eggs were cut from the blotting paper with a 1 cm surround. These were placed, eggs uppermost, on filter paper in the deeper half of 5 cm disposable petri dishes and each batch of eggs was then sprayed with a different test solution or the control solution. The dishes were covered until the control eggs had hatched, approximately five days. The percentage ovicidal mortality was then calculated.

Aedes aegypti larvae = assay: Insecticidal activity, larvae in treated water (Test 1 (b)), toxicity vs parathion; assay type: in vivo, mosquito (Aedes aegypti); set-up: key: Toxicity Index: parathion = 100; 200 = twice as active, 50 = half; details: early fourth instar larvae; final mortality when all larvae emerged as adults or died; 50% mortality basis; standard parathion = 100
Procedure: as §1, §2
as §3, with “pesticide. That is to say, a test compound having a Toxicity Index of 50 would be half as active, while one having a Toxicity Index of 200 would be twice as active as the standard pesticide.” for “pesticide.”
(b) Aedes aegypti--Several solutions of the test compound of varying concentration were prepared in acetone. 100 microliter quantities were added to 100 milliliters of tap water, the acetone being allowed to evaporate off. Ten early fourth instar larvae were placed in the test solution; after 48 hours the (surviving) larvae were fed with animal feed pellets, and the final percentage mortality assessed when all the larvae had either pupated and emerged as adults or died.

Compound	Toxicity Index S.l. [1]	solubility at 48 h (Solubility in xylene) [µg/mL]	Toxicity Index S.l.ov. [2]	Toxicity Index A.a. (Aedes aegypti larvae)
O=C(NC(=O)N(Sc1ccccc1[N+](=O)[O-])c1ccc(Oc2ccc(C(F)(F)F)cc2Cl)cc1)c1c(F)cccc1F [Example 3]	4500	18800 (≈ 30.1 mM)	0	–
O=C(NC(=O)N(Sc1ccccc1[N+](=O)[O-])c1cc(Cl)c(Oc2ccc([N+](=O)[O-])cc2)c(Cl)c1)c1c(F)cccc1F [Example 38]	330	–	0	30
O=C(NC(=O)N(Sc1ccc([N+](=O)[O-])cc1[N+](=O)[O-])c1ccc(OC(F)(F)F)cc1)c1ccccc1Cl [Example 2, 2-Chloro-N-[[[4-(trifluoromethoxy)phenyl]-N-[(2,4-dinitrophenyl)thio]amino]carbonyl]benzamide]	150	–	3300	82
O=C(NC(=O)c1ccccc1Cl)Nc1ccc(OC(F)(F)F)cc1 [1-(4-trifluoromethoxy-phenyl)-3-(2-chloro-benzoyl)-urea, reference compound]	–	2300 (≈ 6.41 mM)	–	–
O=C(NC(=O)N(Sc1ccccc1)c1ccc(Oc2ccc(C(F)(F)F)cc2Cl)cc1)c1ccccc1Cl [Example 29]	930	–	0	330
O=C(NC(=O)c1c(F)cccc1F)Nc1ccc(Oc2ccc(C(F)(F)F)cc2Cl)cc1 [1-(4-(4-trifluoromethyl-2-chlorophenoxy)phenyl)-3-(2,6-difluorobenzoyl)urea, reference compound]	–	5700 (≈ 12.1 mM)	–	–
O=C(NC(=O)N(Sc1ccccc1[N+](=O)[O-])c1ccc(Oc2ccc(C(F)(F)F)cc2Cl)cc1)c1ccccc1Cl [Example 35]	2500	–	0	82
O=C(NC(=O)N(Sc1ccc(Cl)cc1)c1ccc(Oc2ccc(C(F)(F)F)cc2Cl)cc1)c1ccccc1Cl [Example 30]	670	–	0	220
O=C(NC(=O)N(Sc1ccc(Br)cc1)c1ccc(Cl)cc1)c1c(F)cccc1F [Example 37]	51	–	850	26
O=C(NC(=O)N(Sc1ccccc1[N+](=O)[O-])c1ccc(OC(F)(F)F)cc1)c1ccccc1Cl [Example 1, 2-Chloro-N-[[[4-(trifluoromethoxy)phenyl]-N-[(2-nitrophenyl)thio]amino]carbonyl]benzamide]	750	3700 (≈ 7.23 mM)	210	220
Cc1ccccc1SN(C(=O)NC(=O)c1ccccc1Cl)c1ccc(Oc2ccc(C(F)(F)F)cc2Cl)cc1 [Example 31]	960	–	0	240
O=C(NC(=O)N(Sc1ccc(Br)cc1)c1ccc(C(F)(F)F)cc1)c1c(F)cccc1F [Example 19]	240	–	1500	10
O=C(NC(=O)N(Sc1ccc([N+](=O)[O-])cc1[N+](=O)[O-])c1ccc(Cl)cc1)c1c(F)cccc1F [Example 13]	35	–	1800	100
Cc1ccccc1SN(C(=O)NC(=O)c1c(F)cccc1F)c1ccc(Cl)cc1 [Example 9]	43	–	1400	31
CC(C)(C)c1ccc(SN(C(=O)NC(=O)c2c(F)cccc2F)c2ccc(Cl)cc2)cc1 [Example 36]	42	–	0	22
Cc1ccc(SN(C(=O)NC(=O)c2c(F)cccc2F)c2ccc(C(F)(F)F)cc2)cc1 [Example 18]	300	–	2300	170
O=C(NC(=O)N(Sc1ccc([N+](=O)[O-])cc1)c1ccc(OC(F)(F)F)cc1)c1ccccc1Cl [Example 24]	54	–	11	31
Cc1cccc(SN(C(=O)NC(=O)c2c(F)cccc2F)c2ccc(Cl)cc2)c1 [Example 10]	20	–	1400	24
CC(C)(C)c1ccc(SN(C(=O)NC(=O)c2c(F)cccc2F)c2ccc(C(F)(F)F)cc2)cc1 [Example 26]	580	–	8	82
O=C(NC(=O)N(Sc1ccccc1)c1ccc(C(F)(F)F)cc1)c1c(F)cccc1F [Example 15]	170	–	1800	50
Cc1cccc(SN(C(=O)NC(=O)c2c(F)cccc2F)c2ccc(C(F)(F)F)cc2)c1 [Example 17]	260	–	2800	160
O=C(NC(=O)N(Sc1ccc([N+](=O)[O-])cc1)c1ccc(Cl)cc1)c1c(F)cccc1F [Example 28]	54	–	720	6
O=C(NC(=O)N(SC(Cl)(Cl)Cl)c1ccc(OC(F)(F)F)cc1)c1ccccc1Cl [Example 25]	140	–	1300	28
